Test results as given in article PMC6211230, “Assessment of the antiproliferative and apoptotic roles of sulfonamide carbonic anhydrase IX inhibitors in HeLa cancer cell line” (Journal of Enzyme Inhibition and Medicinal Chemistry, 2018).

What was measured:
Format in all cases: cell-based, human
[1] = test system: HeLa cells; assay: Mitochondrial membrane potential (JC-1); conditions: 0–25 μM
Experimental: Mitochondrial membrane potential (MMP) changes appearing in the intrinsic pathway of mitochondria were spectrophotometrically detected. MMP was measured in a Spectramax, M5 fluorimetric device, at wavelengths of 490 nm (excitation), 530 nm(emission) according to the fluorometric Mitochondria Staining Kit (Sigma-Aldrich, Schnelldorf, Germany, CS0390) protocol.

[2] = test system: HeLa cells; assay: Intracellular ROS detection; conditions: 0–25 μM
Experimental: Intracellular free radicals were measured using the Cellular Reactive Oxygen Species Detection Assay commercial kit (Red Fluorescence, Abcam, Cambridge-UK, 186027). In this kit, a fluorescence probe that is permeable to the cell is used. When the probe reacts with ROS, it produces red fluorescence. The process was applied following kit protocol. The cells were plated on black plates, as 3 × 10^4 in 100 µl, and incubated for 24 h. Sulfonamide compounds in PBS were administered at doses of 0–25 μM and incubated at 37 °C in an atmosphere of 5% CO2 for 1 h (protected from light). After the compounds were poured out, the wells were filled with 100 µl of ROS Deep Red Working Solution and incubated at 37 °C in an atmosphere of 5% CO2 for 1 h. A fluorometry device (Spectramax, M5) Ex/Em = 650/675 nm (cut off = 665 nm) was used to take the measurements.

[3] = test system: HeLa cells; assay: Western blot of cleaved caspases 3, 8, 9 and cleaved PARP; conditions: most notably 10 μM, 24 h
Experimental: The cells were seeded on 6 cm^2 cell culture dishes, and treated with sulfonamide compounds, at doses of 10 and 25 μM, for 24 h. The cells were then washed with cold PBS, which was followed by lysis with RIPA lysis buffer (10 mM Tris-HC1 pH =8, 1 mM EDTA, 1 mM EGTA, 140 mM NaCl, 1% TritonX-100, 0.1 SDS, 0.1% Sodium deoxycholate), 1X phosphates and protease inhibitor (Santa Cruz Biotechnology, Dallas, USA). The acquired supernatants from the lysates which were centrifuged at 12000 g, +4 °C, for 10 min, were transferred to new tubes. Protein concentration was detected using the protein assay kit BCA (Thermo Fisher Scientific, Waltham, MA). After a 30-min period of protein (50 µg) standing in 10% SDS-PAGE gel at 50 V and at 80 V for 3 h, those were blotted to PVDF membrane at 70 V for 5 min (Bio-Rad Turbo Transfer System, Segrate (MI), Italy). After embedding in 1X TBST (12,1 gr Tris, pH 7.5, 70 gr NaCl, 0.1% Tween-20) containing 5% dry milk or 5% BSA, the primer monoclonal antibodies Cleaved Caspase 3,8,9, Cleaved PARP (Millipore) CA IX and Beta-actin, were applied to the membrane and left overnight, which was followed by washing with 1X TBS-T and an incubation period with secondary antibodies of HRP rabbit (Cell signaling, Danvers, MA, USA) or mouse (1/10.000) for 60 min. […]

[4] = test system: PNT-1A; assay: WST-1 cytotoxicity, PNT-1A normal cells; conditions: PNT-1A normal cell
Experimental: (§1) Cancer and normal cell lines were purchased from ATCC and stored in liquid nitrogen. HT-29 (colon adenoma cancer), HeLa (cervix adenoma cancer cell), MDA-MB-231 (breast adenoma cancer cell) and HEK-293 (embryonic kidney epithelial cell), PNT-1A (normal prostate cells) cell lines were incubated in DMEM: F-12 and RPMI-1640, including 10% Foetal Bovine Serum (FBS), 100 μg/mL streptomycin/100 IU/mL penicillin, at 37 °C in an incubator containing 5% CO2, 95% air in a humid atmosphere.
(§2) The cytotoxic effects of the substances were evaluated with WST-1 kits (Roche, Germany) in accordance with the manufacturer’s protocols. The cells were plated on 96-well plates (10^4 cells in each well). After incubation for 24 h, the media were discarded and the substances and Cisplatin as the control drug, at doses of 0, 2.5, 5, 10, 25, 50, 100, and 200 μM, were incubated for 24, 48, and 72 h. WST-1 reactive of 10 µl was added to all wells. Following 4 h incubation, the measurements were taken on a plate reader (Spectramax M5) at wavelengths of 450 and 630 nm. Graphs were then created and the IC50 value of each substance was calculated.

[5] = test system: HeLa; assay: WST-1 cytotoxicity, HeLa
Experimental: as §1, §2

[6] = test system: HeLa cells; assay: Extracellular pH (blood gas device); conditions: HeLa media, dose-dependent, initial pHe 6.4
Experimental: Intracellular pH was measured according to the protocol of the fluorometric Intracellular pH Assay Kit (Sigma, Schnelldorf, Germany, MAK-150). Fluorescent BCFL-AM indicator that was able to pass through the cell membrane was used to measure intracellular pH fluctuations in the fluorometric intracellular pH kit. BCFL-AM was utilised to measure the reductions in intracellular pH of the cells that had been treated by various conditions. The cells were plated on black plates, as 6 × 10^4 in each well of the plate, and incubated for 24 h. The medium was replaced with BCFL-AM Reagent which had been prepared in 100 µl of HBS solution (Hank’s buffer with 20 mM HEPES, 5 mM Probenecid), then the cells were incubated at 37 °C in an atmosphere of 5% CO2 for 30 min (protected from light). Sulfonamide compound at doses of 0–25 μM was added to the HBS solution. In the next 5 min, the measurement was performed at wavelengths of 490 nm (excitation) 535 nm (emission) in spectrofluorimetry (Spectramax, M5). Extracellular pHe and lactate levels were measured with commercial kit by the blood gas device (ABL90 FLEX PLUS, Radiometer, Copenhagen, Denmark) which is routinely used in the clinical biochemistry laboratory of hospital. After the application of the substance in this method, the media were analysed directly by the device.

[7] = test system: HeLa cells; assay: Annexin V-FITC/PI flow cytometry apoptosis; conditions: from 10 μM, 24 h
Experimental: The apoptotic effect of the substances was explored with the commercial FITC Annexin V Apoptosis Detection Kit I (BD Biosciences, New Jersey, USA) according to the manufacturer’s protocol. The cells were plated on 6-well plates (5 × 10^5 cells/well), and following 24 h incubation, sulfonamide compounds at concentrations of 10 and 25 μM were administered, followed by incubation for 24 h. The cells were raised by trypsin handling, and transferred into new tubes within 1X binding buffer, as 1 × 10^6 in each tube, which was incubated for 15 min at room temperature. 5 μL of fluorochrome-conjugated Annexin V and 5 μL of Propidium Iodide dyes were then added. 100 μl 1X binding buffer was added to the cells, and they were then centrifuged at 1200 rpm, for 5 min. Finally, the cells were analysed in flow cytometry (BD Via, New Jersey, USA).

SMILES: NS(=O)(=O)c1ccc(CCN=Cc2cc(Cl)ccc2O)cc1 [Compound A-1]
- mitochondrial membrane potential (MMP) [1]: dose-dependent decrease in MMP
- intracellular ROS [2]: increase the intracellular ROS in HeLa cells in a dose-dependent manner
- cleaved caspase 3, 8, 9 and c-PARP protein levels [3]: significant increase
- IC50 ([4]; 24 h): 389 µM
- IC50 ([4]; 48 h): 110 µM
- IC50 ([4]; 72 h): 203 µM
- IC50 ([5]; 24 h): 28.9 µM
- IC50 ([5]; 48 h): 17.4 µM
- IC50 ([5]; 72 h): 13.7 µM
- extracellular pH (pHe) reached [6]: 7.3
- early apoptosis [7]: 48.7%
